Earlier results on 1 substance are cited in patent US20030045478A1, “Gamma-ketoacid dipeptide derivatives as inhibitors of caspase-3” (priority 2000, published 2003).

One data set concerns the target T1, caspase-3 (Homo sapiens, UniProt P42574).
T1 sequence (P42574 29-175 limits assumed): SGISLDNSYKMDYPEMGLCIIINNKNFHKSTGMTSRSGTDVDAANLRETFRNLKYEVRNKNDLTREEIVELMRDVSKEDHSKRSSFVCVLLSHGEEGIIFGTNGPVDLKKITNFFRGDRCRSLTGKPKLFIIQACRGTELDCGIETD
T1 sequence (P42574 176-277 limits assumed): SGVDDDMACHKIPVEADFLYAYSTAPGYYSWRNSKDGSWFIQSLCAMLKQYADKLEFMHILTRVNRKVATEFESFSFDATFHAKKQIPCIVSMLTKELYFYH

A further data set has as its target T2, caspase-1 (Homo sapiens, UniProt P29466).
T2 sequence (P29466 120-297 limits assumed): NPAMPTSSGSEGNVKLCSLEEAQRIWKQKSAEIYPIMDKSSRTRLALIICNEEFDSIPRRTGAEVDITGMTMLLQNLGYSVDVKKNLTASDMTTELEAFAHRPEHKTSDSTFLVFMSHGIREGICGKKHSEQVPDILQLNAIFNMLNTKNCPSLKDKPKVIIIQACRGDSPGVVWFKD
T2 sequence (P29466 317-404 limits assumed): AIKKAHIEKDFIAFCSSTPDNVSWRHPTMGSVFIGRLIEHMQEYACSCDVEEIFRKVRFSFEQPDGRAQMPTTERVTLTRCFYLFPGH

As for Ac-YVAD-CHO, the Ki (usually the equilibrium dissociation constant of an inhibitor or competing ligand from its target) at caspase-3 was 12 µM; at caspase-1 it was less than 0.001 µM.
